Patent publication US20060229354A1, “Use of Isatin in stimulating red blood cell production and treatment of anemia” (priority 2005, published 2006)

Key:
[1] = test system: freshly isolated peripheral blood mononuclear cells; assay: Melphalan-induced apoptosis in peripheral blood mononuclear cells; assay type: cell-based; settings: data not shown
[2] = test system: UT7/EPO cells; assay: Apoptosis Assay (AA), EPO-deprived UT7/EPO cells; assay type: cell-based
Protocol: UT7/EPO cells treated by Isatin or EPO or PBS was plated in triplicate in 96-well microtiter plates in 50 μl of culture medium and incubated for different time course. The cell apoptosis products were determined by Florence-probe. The cell apoptosis rate was calculated by positive apoptosis fragments.
We used several assays as mentioned in Materials and Methods section to evaluate the pharmacological activity of Isatin compound by examining the growth or the apoptosis of UT7/EPO cells. The cells used in AA assay are UT7/EPO. UT7/EPO cells were deprived from UT7 by elegant genetic engineering. As a result, the survival and growth of UT7/EPO cells rely on the stimulation of EPO-R by the exogenous EPO treatment. On the other hand, without the support of the exogenous EPO, the UT7/EPO cells will die. […] We used different assays to measure the level of apoptosis in UT7/EPO cells. If the tested compounds have erythropoietic agonist effect, the level of apoptosis in UT7/EPO cells should decrease in response to the treatment. […] Compared to EPO, higher dose of Isatin was required to generate the same extent of inhibition.

[3] = test system: STAT5; assay: Immunoprecipitate analysis of STAT5 phosphorylation in UT7/EPO cells; assay type: cell-based; settings: FIG. 6
Source text: FIG. 6 illustrates the results of Immunoprecipiate analysis of the effects of EPO and Isatin on STAT5 phosphorylation in UT7/EPO Cells.
Activation of EPO-R by EPO is predominately mediated by JAK signaling pathway, and STAT5 protein is the major component involving in this signal transduction. We studied the activity of STAT5 in response to Isatin treatment.

[4] = test system: UT7/EPO cells; assay: MTT assay, EPO-deprived UT7/EPO cells; assay type: cell-based; settings: Isatin treatment
Protocol: UT7/EPO cells were cultured for 4 hours and then placed in triplicate in 96 well microtiter plates. The cell was treated with Isatin or EPO or PBS and cultured in 100 ul of DMEM, 10% FCS, overnight. The next day, media was removed and replace MTT assay solution. The plates were incubated for and addition 48 hours. And then cell viability was determined using a MTT assay, as described by manufacture (Sigma).

[5] = test system: UT7/EPO cells; assay: Viable cell counts (trypan blue staining), EPO-deprived UT7/EPO cells; assay type: cell-based; settings: Isatin treatment
[6] = test system: MO7E cells; assay: Apoptosis Assay (AA), GM-CSF-deprived MO7E cells; assay type: cell-based; settings: FIG. 4
[7] = test system: JAK2-associated EPOR; assay: Immunoprecipitate study of phosphorylation of JAK2-associated EPOR in UT7/EPO cells; assay type: cell-based
Protocol: Referring to FIG. 5B, the Isatin-induced EPO-R phosphorylation occurs 5 minutes after the treatment and sustains beyond 1 hour afterwards.

[8] = test system: RPM18226 cells; assay: Melphalan-induced apoptosis in RPM18226 cells; assay type: cell-based; settings: data not shown
[9] = test system: UT7/EPO cells; assay: DNA Ladder Detection Assay, EPO-deprived UT7/EPO cells; assay type: cell-based; settings: Isatin treatment
Protocol: 10^6 UT7/EPO cells, after treated with either Isatin or EPO or PBS, was lysed with 150 ul hypotonic lysis buffer (10 mM EDTA, 0.5% Triton X-100 in […] Tris-HCl, pH 7.4) for 15 minutes on ice and were precipitated with 2.5% polyethylene glycerol and 1 M NaCl for 15 minutes at 4 C. After centrifugation at 16,000 rpm for 10 minutes at room temperature, the supernatant was incubated in the presence of proteinase K (0.3 g/L) at 37° C. for one hour and precipitated with isopropanol at −20° C. After centrifugation, each cell pellet was dissolved in 10 ul of Tris-EDTA (pH 7.6) and electrophoresed on a 1.5% agarose gell containing ethidium bromide. Ladder formation of oligonucleosomal DNA was detected under ultraviolet.

[10] = test system: UT7/EPO cells; assay: Calcein-AM release assay, EPO-deprived UT7/EPO cells; assay type: cell-based; settings: Isatin treatment
Protocol: Calcein-AM was purchased from Molecular Probes (Eugene) as a 1 mg/ml solution in dry dimethyl sulfoxide. UT7/EPO cells were resuspended in complete medium at a final concentration of 10^6/ml and incubated with 15 uM calcein-AM for 30 mininutes at 37° C. with occasional shaking. After two washes in the same way as the ^51Cr assay in V bottom 96-well microtiter plates, with E:T ratios ranging from 50:1 to 0.5:1, in triplicate, and with at least six replicate wells for spontaneous and maximum release. Various numbers of UT7/EPO cells treated with Isatin or EPO or with untreated cells were seeded as follows. After incubation 37° C. in 5% CO2 for 4 hours, 75 ul of each supernatant was harvested and transferred into new plates. The samples were measured using a Sepctramax Gemini dual-scanning microplate spectrofluoimeter. Data were expressed as arbitrary fluorescent unites (AFU). Percent lysis was calculated with the same formula used for the ^51Cr for the ^51CR assay.

[11] = initial phase of therapy; cited from earlier work
[12] = refrigerator between 2° C. and 8° C.; cited from earlier work

Molecule: O=C1Nc2ccccc2C1=O [Isatin, Indole-2,3-dione]
- inhibition of Melphalan-induced apoptosis in freshly isolated peripheral blood mononuclear cells [1]: no noted inhibition
- IC50 ([2]; Homo sapiens, UT-7/Epo, read-out: IC50 for inhibiting apoptosis in UT7/EPO cells): ~10 µM
- effect of Isatin used together with EPO on apoptosis inhibition / EPO-R activity ([2]; Isatin together with EPO, UT7/EPO cells, FIG. 3): synergistic effect
- AA (apoptosis) ([2]; Isatin treatment, EPO-deprived UT7/EPO cells): ↓
- erythropoietic stimulation effect compared with EPO ([2]; UT7/EPO cells, comparison with EPO): weaker than that of EPO
- apoptosis inhibition on UT7/EPO cells, concentration dependence ([2]; increasing Isatin concentration, FIGS. 2A and 2B): steadily enhanced when the concentration of Isatin was increased
- STAT5 activity (phosphorylation) during treatment [3]: no change in STAT5 activity
- MTT (cell viability) [4]: ↑
- Viable Cell Counts (trypan blue staining) [5]: ↑
- inhibition of GM-CSF withdrawal-induced apoptosis in MO7E cells [6]: no noted inhibition
- duration of EPO-R phosphorylation after treatment ([7]; FIG. 5B): > 1 h
- time of onset of EPO-R phosphorylation after treatment ([7]; FIG. 5B): 5 min
- phosphorylation of EPO-R through JAK2 mediated signaling pathway ([7]; FIGS. 5A and 5B): induces phosphorylation of EPO-R
- phosphorylation of EPO-R, Isatin used together with EPO ([7]; Isatin together with EPO): significantly enhance the phosphorylation of EPO-R
- inhibition of Melphalan-induced apoptosis in RPM18226 cells [8]: no noted inhibition
- DNA Ladder Assay [9]: ↓
- Calcein (cell viability) [10]: ↑

Molecule: Epoetin alfa: recombinant EPO protein developed by Amgen, approved by FDA for the treatment of anemia
- increase in the hematocrit [11]: 2 % per week
- shelf life of multi-dose vials in refrigerator after the initial dose [12]: about 20 days
